# From patent publication US4684637A, “Method of decreasing rate of heme metabolism” (The Rockefeller University, priority 1985, dated 1987)
# “And” between values parts separate entries of the source, which are not always exact repeats. Identical values can stand only once.
# How the values were obtained:
# Format in all cases: in vivo, rat
# heme oxygenase [1] = assay: heme oxygenase activity in liver, kidney and spleen of neonatal rats treated with Cr-protoporphyrin
# Experimental: (§1) The treated animals and the controls were assayed for heme oxygenase activity and bilirubin concentration. Since heme oxygenase is an essential component in the catabolism of heme, an increase in heme oxygenase activity is indicative of an increase in the rate of heme catabolism. Heme oxygenase was assyed as described by Maines and Kappas in J. Biol. Chem., 253, 2321-2326 (1978). Total bilirubin in serum was estimated by the method of Roth, Clin. Chem. Acta., 17, 487-492 (1967).
# (§2) Similar studies were conducted with neonatal rats treated subcutaneously with 2 and 10 micromoles per kilogram of Cr-protoporphyrin soon after birth. Various organs were analyzed for heme oxygenase activity and bilirubin concentration. The results were compared with controls each of which were treated subcutaneously with 0.1 ml of saline.
# The results for heme oxygenase activity in liver, kidney and spleen in nanamoles heme oxygenase per milligram microsomal protein per hour are shown below.
# serum bilirubin [2] = assay: serum bilirubin in neonatal rats treated with Cr-protoporphyrin
# Experimental: as §1, §2
# serum bilirubin [3] = assay: total serum bilirubin in neonatal rats treated with Sn-protoporphyrin; conditions: about 100 μmol/Kg s.c. per injection
# Experimental: (§3) To determine the efficacy of Sn-protoporphyrin for controlling the rate of heme metabolism, neonatal rats were injected subcutaneously at birth, and at 12, 24, 48 and 72 hours postnatally with 0.1 ml solutions of Sn-protoporphyrin. To prepare the solutions for parenteral injection, the material was taken up in a small volume of 0.2N sodium hydroxide, adjusted to pH 7.4 with one normal hydrochloric acid and made up to final volume with 0.9% sodium chloride. The compositions as prepared and used contained sufficient Sn-protoporphyrin to provide about 100 μmol/Kg body weight in each 0.1 ml injection. Control neonates received an equivalent volume of saline at each time point. Groups of neonates (6-30 animals per group) were sacrificed at selected time intervals.
# as §1
# heme oxygenase [4] = assay: heme oxygenase activity (bilirubin production) in liver and kidney microsomes of adult rats treated with Sn-protoporphyrin; conditions: 50 μmol/Kg s.c.
# Experimental: Studies were carried out with adult rats treated with Sn-protoporphyrin to determine the effect on heme oxygenase activity and bilirubin production. Three rats weighing about 230 grams each were injected subcutaneously with 50 μmol/Kg of Sn-protoporphyrin in isotonic saline at pH 8. Three controls were similiary treated with isotonic saline. The rats were sacrificed sixteen hours after treatment. The microsomal protein of the separate livers and of the three combined kidneys was estimated and heme oxygenase activity determined according to the method of Maines and Kappas. This procedure measures the heme oxygenase activity by determining the amount of bilirubin produced. The concentration unit for bilirubin is nanamoles bilirubin formed per milligram protein per hour.
# heme oxygenase [5] = assay: hepatic heme oxygenase activity in neonatal rats treated with Sn-protoporphyrin
# Experimental: as §3, §1
# [6] = neonatal rats, about 100 μmol/Kg s.c. per injection
smiles,measurement,setting,value
C=CC1=C(C)c2cc3[n-]c(cc4[n-]c(cc5nc(cc1n2)C(C)=C5C=C)c(C)c4CCC(=O)[O-])c(CCC(=O)[O-])c3C.[Cr+3].[H+] [Cr-protoporphyrin],effect on heme oxygenase,"heme oxygenase [1]; 2 and 10 μmol/Kg s.c., liver, kidney, spleen",immediate decrease in heme oxygenase
same,heme oxygenase activity,"heme oxygenase [1]; kidney, 2 μmol/Kg s.c. soon after birth, day 2",0.36 nanamoles heme oxygenase per m
same,heme oxygenase activity,"heme oxygenase [1]; kidney, 2 μmol/Kg s.c. soon after birth, day 3",0.72 nanamoles heme oxygenase per m
same,heme oxygenase activity,"heme oxygenase [1]; kidney, 2 μmol/Kg s.c. soon after birth, day 5",0.94 nanamoles heme oxygenase per m
same,heme oxygenase activity,"heme oxygenase [1]; kidney, 2 μmol/Kg s.c. soon after birth, day 7",1.17 nanamoles heme oxygenase per m
same,heme oxygenase activity,"heme oxygenase [1]; kidney, 2 μmol/Kg s.c. soon after birth, day 10",1.67 nanamoles heme oxygenase per m
same,heme oxygenase activity,"heme oxygenase [1]; kidney, 2 μmol/Kg s.c. soon after birth, day 14",0.74 nanamoles heme oxygenase per m
same,heme oxygenase activity,"heme oxygenase [1]; kidney, 2 μmol/Kg s.c. soon after birth, day 21",0.61 nanamoles heme oxygenase per m
same,heme oxygenase activity,"heme oxygenase [1]; kidney, 2 μmol/Kg s.c. soon after birth, day 35",0.58 nanamoles heme oxygenase per m
same,heme oxygenase activity,"heme oxygenase [1]; kidney, 10 μmol/Kg s.c. soon after birth, day 2",0 nanamoles heme oxygenase per m
same,heme oxygenase activity,"heme oxygenase [1]; kidney, 10 μmol/Kg s.c. soon after birth, day 3",0.42 nanamoles heme oxygenase per m
same,heme oxygenase activity,"heme oxygenase [1]; kidney, 10 μmol/Kg s.c. soon after birth, day 5",0.59 nanamoles heme oxygenase per m
same,heme oxygenase activity,"heme oxygenase [1]; kidney, 10 μmol/Kg s.c. soon after birth, day 7",0.48 nanamoles heme oxygenase per m
same,heme oxygenase activity,"heme oxygenase [1]; kidney, 10 μmol/Kg s.c. soon after birth, day 10",0.34 nanamoles heme oxygenase per m
same,heme oxygenase activity,"heme oxygenase [1]; kidney, 10 μmol/Kg s.c. soon after birth, day 14",0.41 nanamoles heme oxygenase per m
same,heme oxygenase activity,"heme oxygenase [1]; kidney, 10 μmol/Kg s.c. soon after birth, day 21",0.16 nanamoles heme oxygenase per m
same,heme oxygenase activity,"heme oxygenase [1]; kidney, 10 μmol/Kg s.c. soon after birth, day 35",0.45 nanamoles heme oxygenase per m
same,heme oxygenase activity,"heme oxygenase [1]; liver, 2 μmol/Kg s.c. soon after birth, day 2",5.81 nanamoles heme oxygenase per m
same,heme oxygenase activity,"heme oxygenase [1]; liver, 2 μmol/Kg s.c. soon after birth, day 3",5.60 nanamoles heme oxygenase per m
same,heme oxygenase activity,"heme oxygenase [1]; liver, 2 μmol/Kg s.c. soon after birth, day 5",5.36 nanamoles heme oxygenase per m
same,heme oxygenase activity,"heme oxygenase [1]; liver, 2 μmol/Kg s.c. soon after birth, day 7",4.42 nanamoles heme oxygenase per m
same,heme oxygenase activity,"heme oxygenase [1]; liver, 2 μmol/Kg s.c. soon after birth, day 10",3.62 nanamoles heme oxygenase per m
same,heme oxygenase activity,"heme oxygenase [1]; liver, 2 μmol/Kg s.c. soon after birth, day 14",2.24 nanamoles heme oxygenase per m
same,heme oxygenase activity,"heme oxygenase [1]; liver, 2 μmol/Kg s.c. soon after birth, day 21",1.94 nanamoles heme oxygenase per m
same,heme oxygenase activity,"heme oxygenase [1]; liver, 2 μmol/Kg s.c. soon after birth, day 35",2.38 nanamoles heme oxygenase per m
same,heme oxygenase activity,"heme oxygenase [1]; liver, 10 μmol/Kg s.c. soon after birth, day 2",1.67 nanamoles heme oxygenase per m
same,heme oxygenase activity,"heme oxygenase [1]; liver, 10 μmol/Kg s.c. soon after birth, day 3",1.43 nanamoles heme oxygenase per m
same,heme oxygenase activity,"heme oxygenase [1]; liver, 10 μmol/Kg s.c. soon after birth, day 5",1.22 nanamoles heme oxygenase per m
same,heme oxygenase activity,"heme oxygenase [1]; liver, 10 μmol/Kg s.c. soon after birth, day 7",0.85 nanamoles heme oxygenase per m
same,heme oxygenase activity,"heme oxygenase [1]; liver, 10 μmol/Kg s.c. soon after birth, day 10",0.85 nanamoles heme oxygenase per m
same,heme oxygenase activity,"heme oxygenase [1]; liver, 10 μmol/Kg s.c. soon after birth, day 14",0.78 nanamoles heme oxygenase per m
same,heme oxygenase activity,"heme oxygenase [1]; liver, 10 μmol/Kg s.c. soon after birth, day 21",0.56 nanamoles heme oxygenase per m
same,heme oxygenase activity,"heme oxygenase [1]; liver, 10 μmol/Kg s.c. soon after birth, day 35",1.23 nanamoles heme oxygenase per m
same,heme oxygenase activity,"heme oxygenase [1]; spleen, 2 μmol/Kg s.c. soon after birth, day 2",7.33 nanamoles heme oxygenase per m
same,heme oxygenase activity,"heme oxygenase [1]; spleen, 2 μmol/Kg s.c. soon after birth, day 3",11.13 nanamoles heme oxygenase per m
same,heme oxygenase activity,"heme oxygenase [1]; spleen, 2 μmol/Kg s.c. soon after birth, day 5",15.13 nanamoles heme oxygenase per m
same,heme oxygenase activity,"heme oxygenase [1]; spleen, 2 μmol/Kg s.c. soon after birth, day 7",11.18 nanamoles heme oxygenase per m
same,heme oxygenase activity,"heme oxygenase [1]; spleen, 2 μmol/Kg s.c. soon after birth, day 10",13.87 nanamoles heme oxygenase per m
same,heme oxygenase activity,"heme oxygenase [1]; spleen, 2 μmol/Kg s.c. soon after birth, day 14",16.62 nanamoles heme oxygenase per m
same,heme oxygenase activity,"heme oxygenase [1]; spleen, 2 μmol/Kg s.c. soon after birth, day 21",10.28 nanamoles heme oxygenase per m
same,heme oxygenase activity,"heme oxygenase [1]; spleen, 2 μmol/Kg s.c. soon after birth, day 35",15.55 nanamoles heme oxygenase per m
same,heme oxygenase activity,"heme oxygenase [1]; spleen, 10 μmol/Kg s.c. soon after birth, day 2",3.97 nanamoles heme oxygenase per m
same,heme oxygenase activity,"heme oxygenase [1]; spleen, 10 μmol/Kg s.c. soon after birth, day 3",4.62 nanamoles heme oxygenase per m
same,heme oxygenase activity,"heme oxygenase [1]; spleen, 10 μmol/Kg s.c. soon after birth, day 5",2.76 nanamoles heme oxygenase per m
same,heme oxygenase activity,"heme oxygenase [1]; spleen, 10 μmol/Kg s.c. soon after birth, day 7",6.19 nanamoles heme oxygenase per m
same,heme oxygenase activity,"heme oxygenase [1]; spleen, 10 μmol/Kg s.c. soon after birth, day 10",9.53 nanamoles heme oxygenase per m
same,heme oxygenase activity,"heme oxygenase [1]; spleen, 10 μmol/Kg s.c. soon after birth, day 14",10.34 nanamoles heme oxygenase per m
same,heme oxygenase activity,"heme oxygenase [1]; spleen, 10 μmol/Kg s.c. soon after birth, day 21",8.06 nanamoles heme oxygenase per m
same,heme oxygenase activity,"heme oxygenase [1]; spleen, 10 μmol/Kg s.c. soon after birth, day 35",13.72 nanamoles heme oxygenase per m
same,Serum Bilirubin,"serum bilirubin [2]; 2 μmol/Kg s.c. soon after birth, day 2",0.39 milligrams per deciliter
same,Serum Bilirubin,"serum bilirubin [2]; 2 μmol/Kg s.c. soon after birth, day 3",0.33 milligrams per deciliter
same,Serum Bilirubin,"serum bilirubin [2]; 2 μmol/Kg s.c. soon after birth, day 5",0.28 milligrams per deciliter
same,Serum Bilirubin,"serum bilirubin [2]; 2 μmol/Kg s.c. soon after birth, day 7",0.32 milligrams per deciliter
same,Serum Bilirubin,"serum bilirubin [2]; 2 μmol/Kg s.c. soon after birth, day 10",0.33 milligrams per deciliter
same,Serum Bilirubin,"serum bilirubin [2]; 2 μmol/Kg s.c. soon after birth, day 14",0.40 milligrams per deciliter
same,Serum Bilirubin,"serum bilirubin [2]; 10 μmol/Kg s.c. soon after birth, day 2",0.43 milligrams per deciliter
same,Serum Bilirubin,"serum bilirubin [2]; 10 μmol/Kg s.c. soon after birth, day 3",0.33 milligrams per deciliter
same,Serum Bilirubin,"serum bilirubin [2]; 10 μmol/Kg s.c. soon after birth, day 5",0.24 milligrams per deciliter
same,Serum Bilirubin,"serum bilirubin [2]; 10 μmol/Kg s.c. soon after birth, day 7",0.30 milligrams per deciliter
same,Serum Bilirubin,"serum bilirubin [2]; 10 μmol/Kg s.c. soon after birth, day 10",0.33 milligrams per deciliter
same,Serum Bilirubin,"serum bilirubin [2]; 10 μmol/Kg s.c. soon after birth, day 14",0.28 milligrams per deciliter
"C=Cc1c2[n-]c(c1C)/C=c1\[n-]/c(c(C)c1C=C)=C\c1[n-]c(c(CCC(=O)O)c1C)C=c1[n-]/c(c(C)c1CCC(=O)O)=C\2.[Sn+4] [Sn-protoporphyrin, tin protoporphyrin IX]",day until which low bilirubin concentration continued,serum bilirubin [3],fourth
same,effect on serum bilirubin levels,serum bilirubin [3]; 42 day study,immediate and significant lowering of serum bilirubin levels
same,effect on bilirubin production and heme oxygenase activity,heme oxygenase [4],extremely effective
same,"heme oxygenase activity (bilirubin produced), LIVER","heme oxygenase [4]; sacrificed sixteen hours after treatment, separate livers (Experiment 1-3 = individual rats)",0.95 nanamoles bilirubin formed per and 1.53 nanamoles bilirubin formed per
same,"heme oxygenase activity (bilirubin produced), KIDNEY (COMBINED)","heme oxygenase [4]; sacrificed sixteen hours after treatment, three combined kidneys",0.055 nanamoles bilirubin formed per
same,activity compared with Cr-protoporphyrin,heme oxygenase [5]; decreasing rate of heme metabolism,more active
same,effect on normal postnatal increase in hepatic heme oxygenase activity,"heme oxygenase [5]; neonatal rats, about 100 μmol/Kg s.c. at birth and 12, 24, 48, 72 hours, six week study",completely prevented the normal marked increase in hepatic heme oxygenase activity after birth
same,day at which hepatic heme oxygenase activity attained normal control levels,heme oxygenase [5]; [6],~42 days
same,time hepatic heme oxygenase activity remained well below control levels,heme oxygenase [5]; [6],about three
same,hepatic heme oxygenase activity relative to controls,"heme oxygenase [5]; neonatal rats, about 100 μmol/Kg s.c. per injection, 1 day",less than half the levels of the controls
